From paper PMC12707294 (Analytical chemistry, 2025) come the findings set out here.

The target in the assay is hu3F8 Fab. Format: binding.

In the case of GD2 hexasaccharide [GD2os], the Kd came out at 2.3 ± 0.1 µM.
